Reference: publication PMC3949575 (The Journal of Experimental Medicine, 2014)
pIC50: −log10 of the molar value.

Target: deoxycytidine kinase (dCK) (Homo sapiens, UniProt P27707)
Experiment: HTS hit
Type: cell-based

pIC50: 5.85
Compound: COc1ccc(Br)cc1-c1nc(CSc2nc(N)cc(N)n2)cs1 [DI-0120]
